In this assay the target is T1, Glucocorticoid Receptor (GR) (Homo sapiens, UniProt P04150).
T1 construct: purchased Invitrogen P2893
T1 sequence (P04150 1-777): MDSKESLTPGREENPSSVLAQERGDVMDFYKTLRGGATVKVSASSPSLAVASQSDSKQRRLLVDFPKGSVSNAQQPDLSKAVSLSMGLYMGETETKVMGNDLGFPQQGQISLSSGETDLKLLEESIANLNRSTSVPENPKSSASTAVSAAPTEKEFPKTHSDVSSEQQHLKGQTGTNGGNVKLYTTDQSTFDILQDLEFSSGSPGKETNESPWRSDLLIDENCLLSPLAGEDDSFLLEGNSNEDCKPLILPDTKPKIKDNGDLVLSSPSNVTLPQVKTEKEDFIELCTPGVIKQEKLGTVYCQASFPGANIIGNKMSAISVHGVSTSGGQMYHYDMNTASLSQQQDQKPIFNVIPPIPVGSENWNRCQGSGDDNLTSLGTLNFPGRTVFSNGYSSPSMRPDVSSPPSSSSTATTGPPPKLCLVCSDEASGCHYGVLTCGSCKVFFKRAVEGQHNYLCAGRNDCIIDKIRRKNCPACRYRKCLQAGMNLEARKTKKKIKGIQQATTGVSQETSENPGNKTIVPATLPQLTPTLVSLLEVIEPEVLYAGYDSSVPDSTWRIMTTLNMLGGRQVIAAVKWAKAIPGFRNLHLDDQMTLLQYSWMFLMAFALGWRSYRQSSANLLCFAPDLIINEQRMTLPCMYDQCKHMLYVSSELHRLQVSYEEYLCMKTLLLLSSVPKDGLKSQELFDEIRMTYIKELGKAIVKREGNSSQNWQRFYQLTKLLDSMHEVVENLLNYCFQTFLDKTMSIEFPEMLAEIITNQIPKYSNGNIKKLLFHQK
The experiment in a line: GR Florescence Polarization Assay (PolarScreen Glucocorticoid Receptor Competitor Assay, Red). The settings on record: Fluorescense polarization binding ranges; competition with fluorescent glucocorticoid, incubated overnight at 4° C. An outline of the steps: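 Competitive fluorescence polarization using fluorescent glucocorticoid tracer and human GR in kit buffer. Compounds serially diluted 1:4 in DMSO, incubated with tracer and GR overnight at 4 °C before polarization read.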
For orientation: IC50 means the concentration needed to halve the response being measured. A low value points to higher potency. The compound `CC#C[C@]1(O)CC[C@@]2(Cc3ccccc3)c3ccc(C(=O)Nc4cccnc4C)cc3CCC[C@H]2C1` (racemic) [Example 29, (7aS,9S,11aS)-11a-Benzyl-9-hydroxy-9-prop-1-ynyl-6,7,7a,8,9,10,11,11a-octahydro-5H-dibenzo[a,c]cycloheptene-3-carboxylic acid (2-methyl-pyridin-3-yl)-amide; compound with (7aR,9R,11aR)-11a-benzyl-9-hydroxy-9-prop-1-ynyl-6,7,7a,8,9,10,11,11a-octahydro-5H-dibenzo[a,c]cycloheptene-3-carboxylic acid (2-methyl-pyridin-3-yl)-amide] returned an IC50 of 0.1 to 1 µM.
For `CCC[C@]1(O)CC[C@]2(CC)c3ccc(-c4nc5ccccc5[nH]4)cc3CCC[C@@H]2C1` (single isomer, unassigned) [Example 148] the value was 1 to 10 µM; for `CC[C@@]1(O)CC[C@@]2(Cc3ccccc3)c3ccc(C(=O)Nc4cccnc4C)cc3CCC[C@H]2C1` (single isomer, unassigned) [Example 14], less than 0.1 µM.
Consider `O=C1C=C2CCCc3cc(O)ccc3C2(Cc2ccccc2)CC1` (stereo not shown) [Example 2, 11b-Benzyl-9-hydroxy-1,2,5,6,7,11b-hexahydro-dibenzo[a,c]cyclohepten-3-one], for which the IC50 lay in the range of 0.1 to 1 µM.
`CCC[C@@]1(O)CC[C@@]2(CC)c3ccc(C(=O)Nc4ccccc4Cl)cc3CCC[C@H]2C1` [Example 151, (7aS,9R,11aR)-11a-Ethyl-9-hydroxy-9-propyl-6,7,7a,8,9,10,11,11a-octahydro-5H-dibenzo[a,c]cycloheptene-3-carboxylic acid (2-chloro-phenyl)-amide] returned an IC50 of less than 0.1 µM.
`CC[C@]12C[C@H](O)[C@@](O)(c3ccccc3)C[C@H]1CCCc1cc(C(=O)Nc3cccnc3C)ccc12` (single isomer, unassigned) [Example 125] showed an IC50 of less than 0.1 µM.
As for `CC[C@]12CC[C@@](O)(CC(C)C)C[C@H]1CCCc1cc(C(=O)Nc3cccnc3C)ccc12` [Example 48], the IC50 is 0.1 to 1 µM.
The value for `CC[C@@]1(O)CC[C@@]2(Cc3ccccc3)c3ccc(C(=O)Nc4cccnc4C)cc3C(=O)CC[C@H]2C1` (single isomer, unassigned) [Example 24] was less than 0.1 µM; that for `CCC[C@@]1(O)CC[C@@]2(CC)c3ccc(C(=O)Nc4cccnc4N)cc3CCC[C@H]2C1` (racemic) [Example 149, (7aS,9R,11aR)-11a-Ethyl-9-hydroxy-9-propyl-6,7,7a,8,9,10,11,11a-octahydro-5H-dibenzo[a,c]cycloheptene-3-carboxylic acid (2-amino-pyridin-3-yl)-amide; compound with (7aR,9S,11aS)-11a-ethyl-9-hydroxy-9-propyl-6,7,7a,8,9,10,11,11a-octahydro-5H-dibenzo[a,c]cycloheptene-3-carboxylic acid(2-amino-pyridin-3-yl)-amide] was less than 0.1 µM.
The compound `CCC[C@@]1(O)CC[C@@]2(CC)c3ccc(C(=O)Nc4cccnc4C)cc3C=CC[C@H]2C1` (single isomer, unassigned) [Example 129] had an IC50 of 0.1 to 1 µM.
For `Cc1ncccc1NC(=O)c1ccc2c(c1)CCC[C@H]1C[C@H](O)CC[C@@]21Cc1ccccc1` (racemic) [Example 17, (7aS,9R,11aS)-11a-Benzyl-9-hydroxy-6,7,7a,8,9,10,11,11a-octahydro-5H-dibenzo[a,c]cycloheptene-3-carboxylic acid (2-methyl-pyridin-3-yl)-amide; compound with (7aR,9S,11aR)-11a-benzyl-9-hydroxy-6,7,7a,8,9,10,11,11a-octahydro-5H-dibenzo[a,c]cycloheptene-3-carboxylic acid (2-methyl-pyridin-3-yl)-amide], the IC50 was less than 0.1 µM.
Take `Cc1ncccc1NC(=O)c1ccc2c(c1)CCC[C@H]1C[C@@](O)(c3ccccc3)[C@H](O)C[C@@]21Cc1ccccc1` [Example 43, (7aS,9R,10R,11aR)-11a-Benzyl-9,10-dihydroxy-9-phenyl-6,7,7a,8,9,10,11,11a-octahydro-5H-dibenzo[a,c]cycloheptene-3-carboxylic acid (2-methyl-pyridin-3-yl)-amide; compound with (7aR,9S,10S,11aS)-11a-benzyl-9,10-dihydroxy-9-phenyl-6,7,7a,8,9,10,11,11a-octahydro-5H-dibenzo[a,c]cycloheptene-3-carboxylic acid (2-methyl-pyridin-3-yl)-amide]: the IC50 lay within 0.1 to 1 µM.
For `CC[C@]12CC[C@](C)(O)C[C@H]1CCCc1cc(C(=O)Nc3cccnc3C)ccc12` (single isomer, unassigned) [Example 59], the IC50 was 1 to 10 µM.
`CC[C@@]1(O)CC[C@@]2(Cc3ccccc3)c3nn(C)cc3CCC[C@H]2C1.CC[C@]1(O)CC[C@]2(Cc3ccccc3)c3nn(C)cc3CCC[C@@H]2C1` [Example 40, (6aS,8R,10aS)-10a-Benzyl-8-ethyl-2-methyl-2,4,5,6,6a,7,8,9,10,10a-decahydro-1,2-diaza-benzo[e]azulen-8-ol; compound with (6aR,8S,10aR)-10a-benzyl-8-ethyl-2-methyl-2,4,5,6,6a,7,8,9,10,10a-decahydro-1,2-diaza-benzo[e]azulen-8-ol] yielded an IC50 greater than 10 µM.
As to `CC[C@]12CC[C@@](O)(c3ccccc3)C[C@H]1CCCc1cc(C(=O)Nc3cccnc3C)ccc12` (single isomer, unassigned) [Example 123], the IC50 is 0.1 to 1 µM.
Consider `Cc1ncccc1NC(=O)c1ccc2c(c1)CCC[C@@H]1C[C@](O)(CC#N)CC[C@]21Cc1ccccc1` [Example 67], for which the concentration for half-maximal inhibition (IC50) was in the range of 0.1 to 1 µM.
For `CCC[C@@]12CC[C@@](O)(CC)C[C@@H]1CCCc1cc(C(=O)Nc3cccnc3C)ccc12.CCC[C@]12CC[C@](O)(CC)C[C@H]1CCCc1cc(C(=O)Nc3cccnc3C)ccc12` [Example 27, (7aR,9R,11aS)-9-ethyl-9-hydroxy-11a-propyl-6,7,7a,8,9,10,11,11a-octahydro-5H-dibenzo[a,c]cycloheptene-3-carboxylic acid (2-methyl-pyridin-3-yl)-amide; compound with (7aS,9S,11aR)-9-ethyl-9-hydroxy-11a-propyl-6,7,7a,8,9,10,11,11a-octahydro-5H-dibenzo[a,c]cycloheptene-3-carboxylic acid (2-methyl-pyridin-3-yl)-amide], the IC50 lay within 1 to 10 µM.
For `CCC[C@@]12CC[C@@](O)(Cc3ccccc3)C[C@@H]1CCCc1cc(C(=O)Nc3cccnc3C)ccc12.CCC[C@]12CC[C@](O)(Cc3ccccc3)C[C@H]1CCCc1cc(C(=O)Nc3cccnc3C)ccc12` [Example 35] the value was 1 to 10 µM.
As to `Cc1ncccc1NC(=O)c1ccc2c(c1)CCC[C@H]1C[C@@](O)(CC#N)CC[C@@]21Cc1ccccc1` (racemic) [Example 65], the half-inhibitory concentration (IC50) is less than 0.1 µM.
On to `Cc1ncccc1NC(=O)c1ccc2c(c1)CCC[C@H]1CC(=O)CC[C@@]21Cc1ccccc1` (racemic) [Example 11, (7aS,11aS)-11a-Benzyl-9-oxo-6,7,7a,8,9,10,11,11a-octahydro-5H-dibenzo[a,c]cycloheptene-3-carboxylic acid (2-methyl-pyridin-3-yl)-amide; compound with (7aR,11aR)-11a-benzyl-9-oxo-6,7,7a,8,9,10,11,11a-octahydro-5H-dibenzo[a,c]cycloheptene-3-carboxylic acid (2-methyl-pyridin-3-yl)-amide], for which the IC50 was less than 0.1 µM.
Regarding `CC[C@@]1(O)CC[C@@]2(Cc3ccccc3)c3ccc(C(=O)Nc4cc(C)nn4C)cc3CCC[C@H]2C1` [Example 76], the IC50 is less than 0.1 µM.
For `CC[C@@]1(O)CC[C@@]2(CC)c3ccc(C(=O)Nc4cccnc4C)cc3CCC[C@H]2C1` [Example 47] the value was less than 0.1 µM; for `CC[C@@]1(O)CC[C@@]2(Cc3ccccc3)c3ccc(-c4nc5ccccc5[nH]4)cc3CCC[C@H]2C1` [Example 127, (3R,4aS,11bS)-9-(1H-benzoimidazol-2-yl)-11b-benzyl-3-ethyl-2,3,4,4a,5,6,7,11b-octahydro-1H-dibenzo[a,c]cyclohepten-3-ol], 0.1 to 1 µM; for `CC[C@@]1(O)CC[C@]2(Cc3ccccc3)c3c(cnn3C)CCC[C@@H]2C1.CC[C@]1(O)CC[C@@]2(Cc3ccccc3)c3c(cnn3C)CCC[C@H]2C1` [Example 39, (6aS,8S,10aS)-10a-Benzyl-8-ethyl-1-methyl-1,4,5,6,6a,7,8,9,10,10a-decahydro-1,2-diaza-benzo[e]azulen-8-ol; compound with (6aR,8R,10aR)-10a-benzyl-8-ethyl-1-methyl-1,4,5,6,6a,7,8,9,10,10a-decahydro-1,2-diaza-benzo[e]azulen-8-ol], greater than 10 µM.
Compound `CCCOC[C@@]1(O)CC[C@@]2(Cc3ccccc3)c3ccc(C(=O)Nc4cccnc4C)cc3CCC[C@H]2C1` (racemic) [Example 101] showed an IC50 of less than 0.1 µM.

The values are drawn from patent US20120238549A1, “Nuclear Hormone Receptor Modulators” (ABBOTT LABORATORIES, priority 2011, published 2012).
